Entries after “also recorded” stand apart in the source; their conditions may differ. Peptide text beside a SMILES is read from it. * marks the point of attachment. Stearoyl = CCCCCCCCCCCCCCCCCC(=O)*
Tests used:
[1] = system: influenza virus A/PR/8/34 (H1N1); test: Plaque assay on MDCK cells, inhibition of influenza virus infection (H1N1); format: cell-based, influenza type A virus; conditions: for IC50: H1N1, plaque assay on MDCK cells; for anti-influenza virus activity in vitro: MDCK plaque assay
Protocol: (§1) Inhibition of influenza virus infection was determined by a plaque assay on MDCK cells. The MDCK cells in 6-well plates were incubated with 0.2 mL of influenza virus A/PR/8/34 solutions (100 to 200 pfu; pfu denotes plaque-forming units; subtype H1N1) or influenza virus A/Victria/1/75 solutions (100-200 pfu; subtype H3N2) each containing C18-D1, S2 (H-ARLPRTMVHPKPAQP-NH2), C18-S2 (stearoyl-ARLPRTMVHPKPAQP-NH2), or D1 (H-GLAMAPSVGHVRQHG-NH2). After incubation at 37° C. under 5% CO2 for 30 minutes, the supernatant was removed, and the cells were washed with PBS. 2 mL (per well) of 2×MEM+BSA containing 0.6% agarose, 0.01% of O-diethylaminoethyl cellulose dextran, 0.1% NaHCO3, and 0.01 μg/mL of acetyl trypsin was added, and the cells were incubated for two days. Viable cells were stained with a crystal violet solution (1 mg/mL in 20% ethanol), and the number of plaques was counted. The maximum infection activity (100%) was defined as the number of plaques in the case of the absence of C18-D1. The IC50 value (50% inhibitory concentration) of C18-D1 was obtained from the plot between log [f/(1−f)] and log [C18-D1], wherein f is the percent infection activity. The IC50 values of S2, C18-S2, and D1 were calculated in a similar manner.

[2] = system: influenza virus A/Victria/1/75 (H3N2); test: Plaque assay on MDCK cells, inhibition of influenza virus infection (H3N2); format: cell-based, influenza type A virus
Protocol: as §1

[3] = Critical micelle concentration by NPN fluorescence in PBS; format: physicochemical; conditions: PBS (pH 7.5), 1 μM NPN
Protocol: The critical micelle concentration (CMC) of the purified C18-D1 was determined in the following manner. PBS (pH 7.5) containing 1 μM of N-phenyl-1-naphthylamine (hereinafter abbreviated as “NPN”) was prepared. A C18-D1 peptide stock solution (1 mM) was serially diluted to final concentrations of […], 10, and 30 μM. These solutions were excited by a wavelength of 350 nm, and the fluorescence intensity (FI) at 450 nm was measured. The difference in FI between each diluted peptide solution and PBS alone was plotted as the ordinate, and the peptide solutions were plotted as the abscissa. The concentration at the intersection of the high concentration curve and the low concentration curve was determined. The critical micelle concentration (CMC) of the intersection was 1.3 μM.

influenza virus (H1N1) = system: influenza virus (H1N1); set-up: species or system mice; conditions: mouse
[4] = biological target: hemagglutinin of influenza type A virus A/PR/8/34 (H1N1) (influenza A virus A/PR/8/34 (H1N1)) (UniProt P03452); test: cell-based or functional assay
[5] = biological target: hemagglutinin of influenza type A virus A/Victria/1/75 (H3N2) (influenza A virus A/Victria/1/75 (H3N2)); test: cell-based or functional assay

For `CCCCCCCCCCCCCCCCCC(=O)NCC(=O)N[C@@H](CC(C)C)C(=O)N[C@@H](C)C(=O)N[C@@H](CCSC)C(=O)N[C@@H](C)C(=O)N1CCC[C@H]1C(=O)N[C@@H](CO)C(=O)N[C@H](C(=O)NCC(=O)N[C@@H](Cc1c[nH]cn1)C(=O)N[C@H](C(=O)N[C@@H](CCCNC(=N)N)C(=O)N[C@@H](CCC(N)=O)C(=O)N[C@@H](Cc1c[nH]cn1)C(=O)NCC(N)=O)C(C)C)C(C)C` [C18-D1, (stearoyl)-Gly Leu Ala Met Ala Pro Ser Val Gly His Val Arg Gln His Gly-NH2] (Stearoyl-GLAMAPSVGHVRQHG-NH2), the IC50 [1] was 11 µM, the “anti-influenza virus activity in vitro” value [1] was “inhibited” and the “anti-influenza virus activity in vitro” value ([1]; listed as 018-D1) was “excellent anti-influenza virus activity”. For the same molecule, the IC50 ([2]; H3N2, plaque assay on MDCK cells) was 7.5 µM, the “infection of MDCK cells with H3N2” value ([2]; in vitro, MDCK plaque assay) was “inhibited” and the “critical micelle concentration (CMC)” value [3] was 1.3 µM. For the same molecule, the mice survived (influenza virus (H1N1); in vivo) was ≥ 80%.

For `CCCCCCCCCCCCCCCCCC(=O)N[C@@H](C)C(=O)N[C@@H](CCCNC(=N)N)C(=O)N[C@@H](CC(C)C)C(=O)N1CCC[C@H]1C(=O)N[C@@H](CCCNC(=N)N)C(=O)N[C@H](C(=O)N[C@@H](CCSC)C(=O)N[C@H](C(=O)N[C@@H](Cc1c[nH]cn1)C(=O)N1CCC[C@H]1C(=O)N[C@@H](CCCCN)C(=O)N1CCC[C@H]1C(=O)N[C@@H](C)C(=O)N[C@@H](CCC(N)=O)C(=O)N1CCC[C@H]1C(N)=O)C(C)C)[C@@H](C)O` [C18-S2, stearoyl ARLPRTMVHPKPAQP-NH2] (Stearoyl-ARLPRTMVHPKPAQP-NH2), the IC50 [1] was 10 µM, the “anti-influenza virus activity in vitro” value [1] was “potent anti-influenza virus effect in vitro; also recorded: excellent anti-influenza virus activity” and the “in vivo effect on influenza virus infection” value (influenza virus (H1N1)) was “ineffective in vivo; also recorded: caused early mortality”.

For “H-ARLPRTMVHPKPAQP-NH2 [S2-NH2, H-ARLPRTMVHPKPAQP-NH2]”, the IC50 [1] was > 100 µM.

In the case of “H-GLAMAPSVGHVRQHG-NH2 [D1-NH2, H-GLAMAPSVGHVRQHG-NH2]”, the IC50 [1] is reported as > 100 µM.

With Stearoyl-GLAMAPSVGHVRQHG-NH2 [C18-D1 (stearoyl-Gly Leu Ala Met Ala Pro Ser Val Gly His Val Arg Gln His Gly-NH2), as self-assembly] the IC50 (plaque assay on MDCK cells, inhibition of influenza virus infection) [4] was 11 µM and the IC50 (plaque assay on MDCK cells, inhibition of influenza virus infection) [5] was 7.5 µM.

— US20110152178A1 (priority 2008, published 2011)
